# Assay results published in ChEMBL document CHEMBL5252597, “Synthesis and biological evaluation of N-(3-fluorobenzyl)-4-(1-(methyl-d3)-1H-indazol-5-yl)-5-(6-methylpyridin-2-yl)-1H-imidazol-2-amine as a novel, potent ALK5 receptor inhibitor” (Bioorg Med Chem Lett, 2023).
# How the values were obtained:
# Cytochrome P450 1A2 [1] = biological target: T1, Cytochrome P450 1A2 (Homo sapiens, UniProt P05177); experiment: Inhibition of CYP1A2 (unknown origin); type: ADME
# T1 sequence (P05177 whole entry): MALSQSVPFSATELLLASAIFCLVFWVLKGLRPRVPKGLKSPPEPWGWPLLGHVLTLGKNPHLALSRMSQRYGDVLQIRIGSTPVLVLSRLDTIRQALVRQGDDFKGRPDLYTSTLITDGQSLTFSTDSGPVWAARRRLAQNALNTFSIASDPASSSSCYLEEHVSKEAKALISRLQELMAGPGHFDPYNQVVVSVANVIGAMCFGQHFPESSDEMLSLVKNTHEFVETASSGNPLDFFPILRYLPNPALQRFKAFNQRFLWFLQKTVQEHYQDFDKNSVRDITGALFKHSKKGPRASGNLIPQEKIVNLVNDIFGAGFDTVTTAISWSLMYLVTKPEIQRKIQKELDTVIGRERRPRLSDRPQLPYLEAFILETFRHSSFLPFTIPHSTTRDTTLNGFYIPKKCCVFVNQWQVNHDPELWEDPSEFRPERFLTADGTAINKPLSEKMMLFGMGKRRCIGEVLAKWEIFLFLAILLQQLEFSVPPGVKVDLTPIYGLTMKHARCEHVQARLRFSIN
# Cytochrome P450 2C9 = Cytochrome P450 2C9 (Homo sapiens, UniProt P11712); experiment: Inhibition of CYP2C9 (unknown origin); type: ADME
# Sequence of Cytochrome P450 2C9 (P11712 whole entry): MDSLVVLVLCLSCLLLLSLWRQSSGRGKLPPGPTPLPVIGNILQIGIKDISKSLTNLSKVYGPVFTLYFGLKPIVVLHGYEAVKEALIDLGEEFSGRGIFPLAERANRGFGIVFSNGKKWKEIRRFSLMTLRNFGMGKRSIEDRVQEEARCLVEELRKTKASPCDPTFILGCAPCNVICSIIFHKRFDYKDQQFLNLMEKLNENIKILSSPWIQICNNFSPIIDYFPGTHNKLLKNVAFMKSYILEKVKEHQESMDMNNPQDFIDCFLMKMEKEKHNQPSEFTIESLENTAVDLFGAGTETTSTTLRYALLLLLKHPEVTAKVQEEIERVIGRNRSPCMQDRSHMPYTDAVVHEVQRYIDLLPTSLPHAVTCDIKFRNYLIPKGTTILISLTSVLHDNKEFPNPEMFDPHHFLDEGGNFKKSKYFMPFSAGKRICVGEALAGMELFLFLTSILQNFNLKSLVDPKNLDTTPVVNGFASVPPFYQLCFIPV
# Cytochrome P450 2C19 = Cytochrome P450 2C19 (Homo sapiens, UniProt P33261); experiment: Inhibition of CYP2C19 (unknown origin); type: ADME
# Sequence of Cytochrome P450 2C19 (P33261 whole entry): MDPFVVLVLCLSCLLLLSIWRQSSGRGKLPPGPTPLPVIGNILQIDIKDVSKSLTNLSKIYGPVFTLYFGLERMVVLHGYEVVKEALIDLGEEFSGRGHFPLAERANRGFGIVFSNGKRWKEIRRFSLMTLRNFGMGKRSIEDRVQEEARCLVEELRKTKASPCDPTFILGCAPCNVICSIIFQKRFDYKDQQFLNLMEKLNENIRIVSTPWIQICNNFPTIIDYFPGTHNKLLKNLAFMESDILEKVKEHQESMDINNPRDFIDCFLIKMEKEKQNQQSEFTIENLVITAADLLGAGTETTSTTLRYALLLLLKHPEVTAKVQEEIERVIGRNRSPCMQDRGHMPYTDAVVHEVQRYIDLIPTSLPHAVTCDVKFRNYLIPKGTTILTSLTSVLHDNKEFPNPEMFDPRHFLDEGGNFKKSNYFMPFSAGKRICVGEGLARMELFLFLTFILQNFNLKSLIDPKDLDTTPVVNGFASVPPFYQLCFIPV
# Cytochrome P450 3A4 = Cytochrome P450 3A4 (Homo sapiens, UniProt P08684); experiment: Inhibition of CYP3A4 (unknown origin); type: ADME
# Sequence of Cytochrome P450 3A4 (P08684 whole entry): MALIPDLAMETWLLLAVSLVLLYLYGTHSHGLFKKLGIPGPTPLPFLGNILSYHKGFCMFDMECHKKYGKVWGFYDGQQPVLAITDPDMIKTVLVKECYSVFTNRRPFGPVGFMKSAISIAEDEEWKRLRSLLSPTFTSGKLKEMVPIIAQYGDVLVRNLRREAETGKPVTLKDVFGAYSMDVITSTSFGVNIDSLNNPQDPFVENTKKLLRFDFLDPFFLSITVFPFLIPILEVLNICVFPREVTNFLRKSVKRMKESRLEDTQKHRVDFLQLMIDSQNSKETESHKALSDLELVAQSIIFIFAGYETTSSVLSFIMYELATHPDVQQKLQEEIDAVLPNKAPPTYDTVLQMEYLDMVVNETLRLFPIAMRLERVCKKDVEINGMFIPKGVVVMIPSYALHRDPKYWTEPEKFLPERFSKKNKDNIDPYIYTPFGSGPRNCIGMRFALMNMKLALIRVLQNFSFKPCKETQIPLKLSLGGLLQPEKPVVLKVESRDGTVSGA
# Cytochrome P450 2D6 = Cytochrome P450 2D6 (Homo sapiens, UniProt P10635); experiment: Inhibition of CYP2D6 (unknown origin); type: ADME
# Sequence of Cytochrome P450 2D6 (P10635 whole entry): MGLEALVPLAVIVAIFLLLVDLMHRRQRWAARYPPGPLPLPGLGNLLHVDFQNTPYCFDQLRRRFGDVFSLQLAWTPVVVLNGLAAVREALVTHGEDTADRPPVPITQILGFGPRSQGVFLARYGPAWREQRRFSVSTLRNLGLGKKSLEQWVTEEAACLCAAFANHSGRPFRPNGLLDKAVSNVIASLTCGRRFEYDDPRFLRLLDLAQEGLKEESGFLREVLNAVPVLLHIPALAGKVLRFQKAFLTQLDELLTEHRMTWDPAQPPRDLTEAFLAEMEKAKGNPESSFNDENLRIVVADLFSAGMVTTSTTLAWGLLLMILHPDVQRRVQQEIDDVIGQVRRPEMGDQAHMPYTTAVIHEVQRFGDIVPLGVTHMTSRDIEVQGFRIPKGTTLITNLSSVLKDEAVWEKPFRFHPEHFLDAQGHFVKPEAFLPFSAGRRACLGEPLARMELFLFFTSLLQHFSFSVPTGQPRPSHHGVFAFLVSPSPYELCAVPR
# Activin receptor type-1 = biological target: T2, Activin receptor type-1 (Homo sapiens, UniProt Q04771); experiment: Inhibition of human ALK2 by […] assay
# T2 sequence (Q04771 whole entry): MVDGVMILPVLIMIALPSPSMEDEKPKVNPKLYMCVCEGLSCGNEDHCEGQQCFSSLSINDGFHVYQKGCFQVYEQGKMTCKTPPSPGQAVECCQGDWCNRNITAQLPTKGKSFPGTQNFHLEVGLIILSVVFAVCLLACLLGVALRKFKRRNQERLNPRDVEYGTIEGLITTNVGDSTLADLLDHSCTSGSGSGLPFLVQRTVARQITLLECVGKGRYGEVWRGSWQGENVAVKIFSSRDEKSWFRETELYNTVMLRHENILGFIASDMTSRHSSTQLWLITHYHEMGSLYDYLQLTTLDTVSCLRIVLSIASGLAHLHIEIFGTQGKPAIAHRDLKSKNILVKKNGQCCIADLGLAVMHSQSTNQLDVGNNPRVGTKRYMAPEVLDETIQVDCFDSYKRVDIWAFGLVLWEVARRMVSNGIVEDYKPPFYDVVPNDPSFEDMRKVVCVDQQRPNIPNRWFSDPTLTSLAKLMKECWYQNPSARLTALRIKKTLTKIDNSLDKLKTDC
# [2] = Clearance in BALB/c mouse at 2 mg/kg, iv; type: ADME, organism-based; settings: in vivo
# [3] = Cmax in BALB/c mouse at 10 mg/kg, po; type: ADME, organism-based; set-up: dose 10 mg/kg, route po; settings: in vivo
# [4] = Stability of the compound in human plasma assessed as half life; type: ADME, cell-free
# [5] = Total AUC in BALB/c mouse at 2 mg/kg, iv; type: ADME, organism-based; set-up: dose 2 mg/kg, route iv; settings: in vivo
# [6] = Oral bioavailability in BALB/c mouse at 10 mg/kg; type: ADME, organism-based; settings: in vivo
# [7] = Inhibition of mouse CYP2D6; type: ADME
# [8] = Total AUC in BALB/c mouse at 10 mg/kg, po; type: ADME, organism-based; set-up: dose 10 mg/kg, route po; settings: in vivo
# [9] = Inhibition of mouse CYP2C9; type: ADME
# Cytochrome P450 1A2 [10] = biological target: T3, Cytochrome P450 1A2 (Mus musculus, UniProt P00186); experiment: Inhibition of mouse CYP1A2; type: ADME
# T3 sequence (P00186 whole entry): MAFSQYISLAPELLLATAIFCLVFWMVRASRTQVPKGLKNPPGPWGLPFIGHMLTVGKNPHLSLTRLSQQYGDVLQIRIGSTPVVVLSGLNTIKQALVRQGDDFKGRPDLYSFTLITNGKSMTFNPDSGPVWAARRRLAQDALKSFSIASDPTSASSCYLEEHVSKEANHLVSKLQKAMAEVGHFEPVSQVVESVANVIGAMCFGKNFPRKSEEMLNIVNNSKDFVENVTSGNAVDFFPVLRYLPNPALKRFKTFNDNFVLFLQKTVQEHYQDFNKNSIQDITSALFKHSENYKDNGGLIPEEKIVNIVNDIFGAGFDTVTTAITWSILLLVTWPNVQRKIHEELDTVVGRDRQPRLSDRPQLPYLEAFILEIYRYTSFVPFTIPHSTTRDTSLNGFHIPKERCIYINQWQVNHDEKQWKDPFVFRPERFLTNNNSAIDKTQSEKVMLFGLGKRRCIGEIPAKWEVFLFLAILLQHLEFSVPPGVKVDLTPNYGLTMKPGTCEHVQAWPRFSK
# [11] = Volume of distribution in BALB/c mouse at 2 mg/kg, iv; type: ADME, organism-based; settings: in vivo
# [12] = Half life in BALB/c mouse at 10 mg/kg, po; type: ADME, organism-based; settings: in vivo
# [13] = Inhibition of mouse CYP2C8; type: ADME
# [14] = Inhibition of mouse CYP3A4; type: ADME
# [15] = Half life in BALB/c mouse at 2 mg/kg, iv; type: ADME, organism-based; settings: in vivo
# [16] = Tmax in BALB/c mouse at 10 mg/kg, po; type: ADME, organism-based; settings: in vivo
# [17] = Metabolic stability in human liver microsomes assessed as intrinsic clearance; type: ADME, Microsome; settings: read-out: CLH
# [18] = Stability of the compound in mouse plasma assessed as half life; type: ADME, cell-free
# TGF-beta receptor type-1 [19] = biological target: T4, TGF-beta receptor type-1 (Homo sapiens, UniProt P36897); experiment: Inhibition of ALK5 in human Hs-578T cells assessed as effect of TGF-beta-induced […] phosphorylation; type: cell-based
# T4 sequence (P36897 whole entry): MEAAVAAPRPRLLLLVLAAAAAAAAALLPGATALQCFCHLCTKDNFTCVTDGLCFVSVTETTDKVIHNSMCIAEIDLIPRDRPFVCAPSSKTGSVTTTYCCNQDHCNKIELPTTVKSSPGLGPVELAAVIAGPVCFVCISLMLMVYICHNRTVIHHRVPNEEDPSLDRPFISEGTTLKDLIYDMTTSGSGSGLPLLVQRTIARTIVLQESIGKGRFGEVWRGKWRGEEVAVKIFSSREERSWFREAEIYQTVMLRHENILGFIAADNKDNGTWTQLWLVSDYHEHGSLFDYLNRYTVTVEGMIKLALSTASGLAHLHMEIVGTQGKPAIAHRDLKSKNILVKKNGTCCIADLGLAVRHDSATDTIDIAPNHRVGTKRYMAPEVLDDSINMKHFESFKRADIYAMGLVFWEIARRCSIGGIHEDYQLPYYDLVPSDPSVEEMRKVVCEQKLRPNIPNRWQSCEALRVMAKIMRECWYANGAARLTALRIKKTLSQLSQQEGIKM
# TGF-beta receptor type-1 [20] = biological target: T4, TGF-beta receptor type-1; experiment: Inhibition of human ALK5 by Kinase Glo luminescence assay
smiles,measurement,setting,value
Cc1cccc(-c2[nH]c(NCc3ccc(F)cc3F)nc2-c2ccc3[nH]ncc3c2)n1,IC50,Cytochrome P450 1A2 [1],8.7 µM
same,IC50,Cytochrome P450 2C9,0.5 µM
same,IC50,Cytochrome P450 2C19,3.3 µM
same,IC50,Cytochrome P450 3A4,> 10 µM
same,IC50,Cytochrome P450 2D6,5.8 µM
Cc1cccc(-c2[nH]c(NCc3ccc(Cl)c(Cl)c3)nc2-c2ccc3[nH]ncc3c2)n1,IC50,Cytochrome P450 1A2 [1],> 10 µM
same,IC50,Cytochrome P450 2C9,> 10 µM
same,IC50,Cytochrome P450 2C19,> 10 µM
same,IC50,Cytochrome P450 3A4,> 10 µM
same,IC50,Cytochrome P450 2D6,> 10 µM
Cc1cccc(-c2[nH]c(NCc3cccc(F)c3)nc2-c2ccc3[nH]ncc3c2)n1,IC50,Activin receptor type-1,> 10 µM
same,IC50,Cytochrome P450 1A2 [1],> 10 µM
same,IC50,Cytochrome P450 2C9,1.1 µM
same,IC50,Cytochrome P450 2C19,8.6 µM
same,IC50,Cytochrome P450 3A4,> 10 µM
same,IC50,Cytochrome P450 2D6,6.7 µM
Cc1cccc(-c2[nH]c(NCc3cccc(F)c3F)nc2-c2ccc3[nH]ncc3c2)n1,IC50,Cytochrome P450 1A2 [1],> 10 µM
same,IC50,Cytochrome P450 2C9,0.6 µM
same,IC50,Cytochrome P450 2C19,4.3 µM
same,IC50,Cytochrome P450 3A4,> 10 µM
same,IC50,Cytochrome P450 2D6,6.9 µM
Cc1cccc(-c2[nH]c(NCc3ccc(F)c(F)c3)nc2-c2ccc3[nH]ncc3c2)n1,IC50,Cytochrome P450 1A2 [1],8.6 µM
same,IC50,Cytochrome P450 2C9,0.4 µM
same,IC50,Cytochrome P450 2C19,4.3 µM
same,IC50,Cytochrome P450 3A4,> 10 µM
same,IC50,Cytochrome P450 2D6,4.1 µM
Cc1cccc(-c2[nH]c(NCc3ccccc3F)nc2-c2ccc3[nH]ncc3c2)n1,IC50,Cytochrome P450 1A2 [1],> 10 µM
same,IC50,Cytochrome P450 2C9,1.4 µM
same,IC50,Cytochrome P450 2C19,7.2 µM
same,IC50,Cytochrome P450 3A4,> 10 µM
same,IC50,Cytochrome P450 2D6,8.8 µM
Cc1cccc(-c2[nH]c(NCc3ccc(Cl)cc3F)nc2-c2ccc3[nH]ncc3c2)n1,IC50,Cytochrome P450 1A2 [1],8.8 µM
same,IC50,Cytochrome P450 2C9,0.4 µM
same,IC50,Cytochrome P450 2C19,3.1 µM
same,IC50,Cytochrome P450 3A4,8.7 µM
same,IC50,Cytochrome P450 2D6,6.7 µM
CCn1ncc2cc(-c3nc(NCc4cccc(F)c4)[nH]c3-c3cccc(C)n3)ccc21,IC50,Activin receptor type-1,> 10 µM
Cc1cccc(-c2[nH]c(NCc3cccc(Cl)c3F)nc2-c2ccc3[nH]ncc3c2)n1,IC50,Cytochrome P450 1A2 [1],> 10 µM
same,IC50,Cytochrome P450 2C9,0.5 µM
same,IC50,Cytochrome P450 2C19,3.6 µM
same,IC50,Cytochrome P450 3A4,8 µM
same,IC50,Cytochrome P450 2D6,4.8 µM
[2H]C([2H])([2H])n1ncc2cc(-c3nc(NCc4cccc(F)c4)[nH]c3-c3cccc(C)n3)ccc21,clearance,[2],29 mL/min/kg
same,Cmax,[3],1720 ng/mL
same,half-life,[4],> 2 h
same,AUC,[5],1170 ng·h/mL
same,bioavailability,[6],67.6%
same,IC50,[7],20.5 µM
same,AUC,[8],3940 ng·h/mL
same,IC50,[9],22.1 µM
same,IC50,Cytochrome P450 1A2 [10],67 µM
same,Vd,[11],3.8 L/kg
same,half-life,[12],1.6 h
same,IC50,[13],38.7 µM
same,IC50,[14],16 µM
same,half-life,[15],1.5 h
same,Tmax,[16],0.4 h
same,microsomal CLint,[17],23.1 µL/min/mg
same,half-life,[18],> 2 h
Cc1cccc(-c2[nH]c(NCc3cccc(F)c3)nc2-c2ccc3c(cnn3C)c2)n1,clearance,[2],38.4 mL/min/kg
same,IC50,Activin receptor type-1,> 10 µM
same,IC50,Cytochrome P450 1A2 [1],> 10 µM
same,Cmax,[3],1530 ng/mL
same,half-life,[4],> 2 h
same,AUC,[5],870 ng·h/mL
same,bioavailability,[6],69.6%
same,IC50,Cytochrome P450 2C9,> 10 µM
same,IC50,[7],26.2 µM
same,AUC,[8],3030 ng·h/mL
same,IC50,[9],27.8 µM
same,IC50,Cytochrome P450 1A2 [10],71.5 µM
same,Vd,[11],5.1 L/kg
same,IC50,Cytochrome P450 2C19,> 10 µM
same,half-life,[12],1.6 h
same,IC50,[13],34.1 µM
same,IC50,Cytochrome P450 3A4,> 10 µM
same,IC50,[14],20.5 µM
same,half-life,[15],1.6 h
same,Tmax,[16],0.4 h
same,microsomal CLint,[17],29.8 µL/min/mg
same,IC50,Cytochrome P450 2D6,> 10 µM
same,half-life,[18],> 2 h
Cc1cccc(-c2[nH]c(NCc3cccc(F)c3)nc2-c2ccc3c(cnn3S(C)(=O)=O)c2)n1,IC50,Activin receptor type-1,> 10 µM
same,IC50,Cytochrome P450 1A2 [1],9.4 µM
same,IC50,Cytochrome P450 2C9,> 10 µM
same,IC50,Cytochrome P450 2C19,> 10 µM
same,IC50,Cytochrome P450 3A4,> 10 µM
same,IC50,TGF-beta receptor type-1 [19],> 0.3 µM
same,IC50,Cytochrome P450 2D6,> 10 µM
Cc1cccc(-c2[nH]c(NCc3ccccc3F)nc2-c2ccc3[nH]ccc3c2)n1,IC50,TGF-beta receptor type-1 [19],> 0.3 µM
same,IC50,TGF-beta receptor type-1 [20],> 10 µM
Cc1cccc(-c2[nH]c(NCc3cccc(F)c3)nc2-c2ccc3c(cnn3C(F)F)c2)n1,IC50,Activin receptor type-1,> 10 µM
same,IC50,Cytochrome P450 1A2 [1],8.5 µM
same,IC50,Cytochrome P450 2C9,> 10 µM
same,IC50,Cytochrome P450 2C19,> 10 µM
same,IC50,Cytochrome P450 3A4,> 10 µM
same,IC50,Cytochrome P450 2D6,> 10 µM
